These results are taken from patent US12370231B2, “Compositions for inhibiting degradation of hyaluronic acid and methods of use thereof” (Epidarus Therapeutics, LLC, priority 2020, dated 2025).

What all share (type): biochemical
For assay [1], the target named is T1, HYAL1 (Homo sapiens, UniProt Q12794).
T1 construct: Human HYAL1 enzyme was isolated from urine following published protocols; from tissue; host or cells: human urine
T1 sequence (Q12794 22-435): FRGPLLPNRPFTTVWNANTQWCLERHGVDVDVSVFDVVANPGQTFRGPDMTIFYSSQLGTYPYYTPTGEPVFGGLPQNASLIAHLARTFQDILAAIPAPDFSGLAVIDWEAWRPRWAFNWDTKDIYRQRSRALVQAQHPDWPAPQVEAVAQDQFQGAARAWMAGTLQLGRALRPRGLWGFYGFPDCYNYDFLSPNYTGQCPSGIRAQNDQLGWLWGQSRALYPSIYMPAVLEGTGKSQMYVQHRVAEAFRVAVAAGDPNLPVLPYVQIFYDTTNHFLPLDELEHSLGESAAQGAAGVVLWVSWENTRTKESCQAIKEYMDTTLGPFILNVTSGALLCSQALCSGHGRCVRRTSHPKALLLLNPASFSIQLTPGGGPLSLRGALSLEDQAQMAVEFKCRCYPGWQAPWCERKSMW
Kind of assay: Anti-HYAL1 activity of Epidarus Extract Mix after incubation with antimicrobial agents. The conditions noted are these: agent at 0.3%; 5 mg/ml Epidarus Extract Mix in 5% 1,3 Propanediol/Water, 48 hours, 37 degrees; relative to control without agent. Here is the method:
In order to achieve stable, bio-active cosmeceutical formulations, a range of commercially available cosmetic ingredients were assessed for their ability to solubilize the Prunella, Linden or Star Anise extracts or mixed extracts of Prunella, Linden or Star Anise without compromising the HYAL1—inhibitory activity of the botanical extracts. These included, for example: Sepigel 305™, Simugel 600™, Arlasolve™-DMI, Carbopol® Ultrez 21, Hydrolyte®5, Hydrolyte®6 and Zemea® 1,3 Propanediol. In addition, a number of preservative/antimicrobial compounds were similarly assessed for efficacy and effects on biological activity of the added botanical extracts. These included, for example: Phenoxyethanol, Optiphen™ (Phenoxyethanol and Caprylyl Glycol), Methylparaben and Chlorphenesin.
The antimicrobial agents were incubated in a solution of 5% 1,3 Propanediol/Water containing 5 mg/ml of Epidarus Extract Mix (Prunella, Star Anise and Linden) at the indicated concentrations for 48 hours at 37 degrees Centigrade. The anti-HYAL1 activity was measured relative to a control without added antimicrobial agents.

In assay [2] the target is T1, HYAL1. The experiment in a line: HYAL1 degradation of synovial fluid HA. As to conditions: 12 ug Synovial Fluid HA per assay, 2 hours, 37 degrees. How it is done: Human HYAL1 enzyme was isolated from urine following published protocols (Afify, A. M. et al. Archives of Biochemistry and Biophysics 305, 434-441, 1993). The enzyme activity was calibrated and validated by comparison to commercially available recombinant human HYAL1 (R&D Systems, USA).
Synovial fluid from healthy joints is a solution of 5 to 7 mg/ml of High Molecular weight Hyaluronic Acid. The bovine metacarpopharangeal joints used in these experiments were from 2 year old steers and the synovial fluid was verified by Agarose Gel electrophoresis to be composed of predominantly High MW HA.
Degradation of Synovial Fluid by urinary HYAL1 breaks down the HA to tetra-saccharides in 2 hours at 37 degrees, using a standard HYAL1 assay, testing 12 ug Synovial Fluid HA per assay.
An extract mixture containing Star Anise Pod Extract, Linden Flower Extract and Prunella Flower Spike Extract was also tested to determine the minimum concentration of extract mix required to achieve 100% inhibition of Synovial Fluid HA under the same conditions as used for pentosan polysulfate. This concentration was determined to be 280 ng/ml.

The target in assay [3] is T1, HYAL1. The experiment in a line: HYAL1-inhibitory activity of Epidarus extracts after simulated digestion with additives/excipients. As to conditions: test ingredient with Epidarus extracts, after simulated gastric and intestinal digestion. How it is done: In order to develop bio-active formulations for osteoarthritis and bladder […] cystitis therapies in humans and animals, oral bio-availability studies were undertaken. […] Maltodextrin is a partially hydrolyzed vegetable starch and is made from corn, rice, potato starch, wheat, or other vegetable sources. […] The gastric digest was adjusted to pH 6.8 with 1M Sodium Hydroxide and mixed with an equivalent volume of Simulated Intestinal Fluid (SIF) to which was added a commercial preparation of canine pancreatic enzymes, at the following concentrations: Lipase (2,000 to 10,000 Units per ml), Protease (100 to 1,000 Units per ml), Amylase (200 to 2,000 Units per ml) and Bile Salts to 10 mM. Following the simulated complete digestion of the chew/tablet formulations, the levels of active ingredients were assayed and the HYAL1-inhibitory activity was determined. These assays were used to test a range of additives/excipients used in the production of functional nutritional supplements for human and animal use.

As to `COC(=O)c1ccc(O)cc1` [Methylparaben], the “Anti-HYAL1 Activity” value on HYAL1 [1] is on record as 45%. On to pentosan polysulfate, for which the “concentration causing 100% inhibition of HYAL1” value at HYAL1 [2] came to 156 ng/mL.

On to `CCCCCCCCCCCCCCCCCC(=O)O` [Stearic Acid], for which the “% Inhibition of anti-HYAL1 activity” value on HYAL1 [3] is 0%.
